# Results published in paper PMC9090566 (RSC Advances, 2018).
# Target: T4 polynucleotide kinase (T4 PNK) (Tequatrovirus T4, UniProt P06855)
# Assay type: biochemical
# Chain of T4 polynucleotide kinase (T4 PNK) (P06855 whole entry): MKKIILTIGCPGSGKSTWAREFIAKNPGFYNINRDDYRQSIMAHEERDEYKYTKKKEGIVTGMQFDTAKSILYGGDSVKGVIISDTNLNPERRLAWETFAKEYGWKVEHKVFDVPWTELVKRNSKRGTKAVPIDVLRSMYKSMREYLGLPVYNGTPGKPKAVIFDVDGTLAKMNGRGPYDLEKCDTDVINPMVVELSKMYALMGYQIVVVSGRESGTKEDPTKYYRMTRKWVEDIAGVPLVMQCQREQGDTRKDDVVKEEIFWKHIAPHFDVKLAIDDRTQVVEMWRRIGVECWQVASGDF
smiles,measurement,value
O=S(=O)(O)O [(NH4)2SO4],IC50,18 mM
